Assay [1] addresses T1, ARF1^WT (Δ17ARF1) (Homo sapiens, UniProt P84077).
T1 construct: N-terminally truncated (first 17 residues removed), His6-tag (pProEX HTb), E. coli BL21-CodonPlus (DE3)-RIPL
Description: GDP/MANT-GTP nucleotide exchange, fluorescence. It is filed as biochemical. Particulars: exchange catalysed by […] human ARNO Sec7 ([…]-250).

Assay [2] concerns the target T1, ARF1^WT (Δ17ARF1). Description: protein thermal shift (SYPRO Orange); intact-protein and tandem MS. It is filed as binding. As to conditions: […] protein, covalent at C159.
In assay [3] the target is T2, ARF1^WT (Δ17ARF1) (Homo sapiens, UniProt P84077, C159A).
T2 construct: N-terminally truncated (first 17 residues removed), His6-tag (pProEX HTb), E. coli BL21-CodonPlus (DE3)-RIPL
Description: protein thermal shift (SYPRO Orange). It is filed as binding. As to conditions: no covalent adduct by mass spectrometry. The source says: protein thermal shift (SYPRO Orange) on ARF1^WT (Δ17ARF1) | PPIs with ARF1^C159A where C159 was mutated to alanine. No Tm shifts were observed

Assay [4] has as its target T3, SPOP^MATH (Homo sapiens, UniProt O43791).
T3 construct: MATH domain, residues 28-166; GST tag cut with PreScission protease; E. coli BL21-CodonPlus (DE3)-RIPL
The experiment in a line: fluorescence polarization, displacement of FITC-puc_SBC1 peptide. Type of assay: binding. For orientation: Fluorescence polarisation rises when a labelled molecule tumbles more slowly, as on binding a larger partner.

The target of assay [5] is T4, RNF130 (Homo sapiens, UniProt Q86XS8).
T4 construct: residues 1-304, C-terminal His8-Flag tag kept, expressed in Expi-293F
T4 sequence (Q86XS8 28-304 limits assumed): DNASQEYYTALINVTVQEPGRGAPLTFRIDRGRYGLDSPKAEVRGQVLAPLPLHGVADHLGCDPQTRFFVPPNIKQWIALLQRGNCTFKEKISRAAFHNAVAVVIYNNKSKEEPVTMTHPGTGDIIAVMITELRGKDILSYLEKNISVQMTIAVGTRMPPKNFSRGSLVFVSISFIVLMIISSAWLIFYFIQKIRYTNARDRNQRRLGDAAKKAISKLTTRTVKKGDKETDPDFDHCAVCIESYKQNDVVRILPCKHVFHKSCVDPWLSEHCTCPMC
Description: ITC. As to conditions: […] RNF130 in cell, […] compound injected; N = […]. Type of assay: binding.

The term IC50 denotes the midpoint of a concentration-inhibition curve. One may read the Kd as a measure of binding affinity in units of concentration.

SMILES strings stand for the structures. Some results are limits rather than exact numbers.

T1 sequence (P84077 18-181, stated change not applied): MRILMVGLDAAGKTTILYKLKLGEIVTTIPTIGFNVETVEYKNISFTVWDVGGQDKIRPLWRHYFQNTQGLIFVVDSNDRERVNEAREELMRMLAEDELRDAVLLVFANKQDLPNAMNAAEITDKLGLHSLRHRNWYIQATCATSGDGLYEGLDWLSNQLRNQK
T3 sequence (O43791 28-166): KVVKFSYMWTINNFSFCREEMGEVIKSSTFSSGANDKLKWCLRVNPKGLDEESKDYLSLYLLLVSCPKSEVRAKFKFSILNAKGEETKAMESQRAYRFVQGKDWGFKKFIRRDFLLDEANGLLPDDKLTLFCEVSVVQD
T2 sequence (P84077 18-181 C159A): as the sequence (P84077 18-181, stated change not applied) above, with C142A counted along it

`COCCCOc1ccnc(C[S+]([O-])c2nc3ccccc3[nH]2)c1C` (stereo not drawn) [rabeprazole]: in assay [1], the “GDP/MANT-GTP nucleotide exchange, fluorescence” value was “rabeprazole suppressed the nucleotide exchange process in a concentration-dependent manner”. For the same compound, the Tm shift entry in assay [2] (no DTT; […] compound) was “PPIs could bind directly to wild-type ARF1 (ARF1^WT) and destabilize the protein”; in assay [3], “PPIs with ARF1^C159A where C159 was mutated to alanine. No Tm shifts were observed”.
In the case of `C=CC1=C(C(=O)O)N2C(=O)[C@@H](NC(=O)CCC3CCCC3)[C@H]2SC1` [222A5, (6R,7R)−7-(3-cyclopentylpropanamido)−8-oxo-3-vinyl-5-thia-1-azabicyclo[4.2.0]oct-2-ene-2-carboxylic acid], the IC50 in assay [4] is above 100 µM.
For `COc1ccnc(C[S+]([O-])c2nc3cc(OC(F)F)ccc3[nH]2)c1OC` (stereo not drawn) [pantoprazole], the Tm shift entry in assay [2] (no DTT) is “PPIs could bind directly to wild-type ARF1 (ARF1^WT) and destabilize the protein”.
With `Cc1c(OCC(F)(F)F)ccnc1C[S+]([O-])c1nc2ccccc2[nH]1` (stereo not drawn) [lansoprazole], in assay [2] (no DTT), the Tm shift entry was “PPIs could bind directly to wild-type ARF1 (ARF1^WT) and destabilize the protein”.
`CS(=O)(=O)c1nnc(CN2C3C=C(c4ccccc4)CC2CC3)s1` (stereo not drawn) [iRNF130-63]: the Kd in assay [5] is 1.23 µM.
As to `Cc1nnc(SCC2=C(C(=O)O)N3C(=O)C(NC(=O)c4ccc(COc5ccccc5Cl)o4)C3SC2)s1` (stereo not drawn) [221C7], the half-maximal inhibitory concentration (IC50) in assay [4] turned out to be 4.51 µM.
Regarding `COc1ccc2[nH]c([S+]([O-])Cc3ncc(C)c(OC)c3C)nc2c1` (stereo not drawn) [omeprazole], the Tm shift result in assay [2] (no DTT) was “PPIs could bind directly to wild-type ARF1 (ARF1^WT) and destabilize the protein”.

(Values after paper PMC10349078, “Sequence-based drug design as a concept in computational drug design” (Nature Communications, 2023).)
